14 compounds from patent publication US5747517A, “Benzylidene rhodanines” (Eli Lilly and Company, priority 1996, dated 1998) can be followed below.

In assay [1] the test system is β-amyloid peptide production in 293 751 SWE and CHO 751 SWE cells. The assay can be described thus: β-Amyloid Peptide Production Inhibition Activity In Cells (cellular assay, ELISA normalised to MTT). Type of assay: cell-based. As to conditions: for inhibition at 0.31 µg/mL: 0.31 μg/ml; for inhibition at 0.31 µg/mL / inhibition at 0.62 µg/mL / inhibition at 1.25 µg/mL / inhibition at 2.5 µg/mL / inhibition at 5 µg/mL / inhibition at 10 µg/mL: read-out: Percent Inhibition (β-amyloid peptide production); for inhibition at 0.62 µg/mL: 0.62 μg/ml. As for the experimental part:
β-AMYLOID PEPTIDE […] (CELLULAR ASSAY)
Two cell lines (human kidney cell line 293 and Chinese hamster ovary cell line CHO) were stably transfected with the gene for APP751 containing the double mutation Lys651 -Met652 to Asn651 -Leu652 (APP-751 numbering) commonly called the Swedish mutation using the method described in Citron, et al., Nature 360:672-674 (1992). The transfected cell lines were designated as 293 751 SWE and CHO 751 SWE, and were plated in Corning 96 well plates at 2.5×10^4 or 1×10^4 cells per well respectively in Dulbecco's minimal essential media (DMEM) plus 10% fetal bovine serum. Following overnight incubation at 37° C. in an incubator equilibrated with 10% carbon dioxide (CO2), the media were removed and replaced with 200 μl per well of media containing an aspartyl protease inhibitor. After a two hour pretreatment period, the media were again removed and replaced with fresh media containing the aspartyl protease inhibitor and the cells were incubated for an additional two hours.
After treatment, plates were centrifuged at 1200 rpm for five minutes at room temperature to pellet cellular debris from the conditioned media. From each well, 100 μl of conditioned media were transferred into an ELISA plate precoated with antibody 266 against β-amyloid peptide(13-28) (Seubert et al., supra. ) and stored at 4° C. overnight. An ELISA assay employing labelled antibody 6C6 (against β-amyloid peptide-1-16) was run the next day to measure the amount of β-amyloid peptide produced.
Cytotoxic effects of the compounds were measured by a modification of the method of Hansen et al., (1989) J. Immun. Meth. 119:203-210. To the cells remaining in the tissue culture plate, was added 25 μl of a 3-(4,5-dimethylthiazol-2-yl)2,5-diphenyltetrazolium bromide (MTT) stock solution (5 mg/ml) to a final concentration of […]. Cells were incubated at 37° C. for one hour, and cellular activity was stopped by the addition of an equal volume of MTT lysis buffer (20% w/v sodium dodecylsulfate in 50% DMF, pH 4.7). Complete extraction was achieved by overnight shaking at room temperature. The difference in the OD562nm and the OD650nm was measured in a Uvmax microplate reader as an indicator of the cellular viability.
The results of the β-amyloid peptide ELISA were fit to a standard curve and expressed as ng/ml β-amyloid peptide. In order to normalize for cytotoxicity, these β-amyloid peptide results were divided by the MTT results and expressed as a percentage of the results from a drug-free control.
In general terms: ELISA stands for enzyme-linked immunosorbent assay.

For a further assay, the target named is T1, cathepsin D (Homo sapiens, UniProt P07339).
T1 construct: Human brain cathepsin D was purified from frozen post-mortem cortex; from tissue; host or cells: human tissue: brain cortex (Assay 1), liver (Assay 2, bought from Athens Research and Technology) or placenta (Assay 3); the results are not tied to one of them
The assay can be described thus: Cathepsin D Inhibition Assay (non-cellular). Type of assay: biochemical. Conditions: for inhibition at 0.31 µg/mL: 0.31 μg/ml; for inhibition at 0.31 µg/mL / inhibition at 0.62 µg/mL / inhibition at 1.25 µg/mL / inhibition at 2.5 µg/mL / inhibition at 5 µg/mL / inhibition at 10 µg/mL: read-out: Percent Inhibition (cathepsin D); for inhibition at 0.62 µg/mL: 0.62 μg/ml. An excerpt:
First, test compounds which inhibit exemplary aspartyl proteases, particularly cathepsin D, are identified as aspartyl protease inhibitors. As used herein, the term "test system" refers to an assay that is designed to measure aspartyl protease inhibitory activity. A typical test system used for such identification is a non-cellular assay where turnover of the protease substrate is monitored upon the administering of a protease inhibitor. The turnover of the protease […] is then compared to the turnover of substrate in a control test system in which no such aspartyl protease inhibitor has been administered. As used herein, the term "control test system" refers to an identical test system that is run side-by-side with the test system with the exception no aspartyl protease inhibitor is administered. This non-cellular assay is used to identify those test compounds having suitable aspartyl protease inhibitory activity in a non-cellular environment. An example of a non-cellular assay that may be used to determine in vitro aspartyl protease inhibitory activity reacts partially purified human brain cathepsin D with a substrate, e.g., porcine renin tetradecapeptide. The resultant reaction mixture is divided into portions and each portion is incubated for a different period of time. After the reaction is stopped, the turnover of substrate in each portion is determined using reverse-phase high performance liquid chromatography (HPLC). Protease inhibition activity may be calculated based on the rates of substrate turnover. This assay is exemplified in Assay 1, below. A second non-cellular assay for determining in vitro aspartyl protease inhibitory activity utilizes a microtiter plate, where a suitable aspartyl protease, such as a cathepsin D is added to each well together with controls. A suitable fluorometric substrate is added to each well. The resultant reaction mixture is allowed to react for a preselected time, e.g., 30 minutes. After enzyme activity is terminated, the substrate or its product may be determined fluorometrically and then the protease inhibition activity may be calculated based on the rates of substrate turnover. This assay is exemplified in Assay 2, below. CATHEPSIN D INHIBITION ACTIVITY (NON-CELLULAR ASSAY) Human brain cathepsin D was purified from frozen post-mortem cortex substantially in accordance with the method of Nixon and Morotta, (1984) J. Neurochem. 43:507-516. The cortex material was prepared and applied to a DEAE-Sepharose® column. The flow through fraction was dialyzed against 50 mM Tris-HCl, pH 7.5, and applied to concanavalin A Sepharose® and eluted with 50 mM Tris, pH 7.5, 0.5M methyl α-D-mannopyranoside. The eluted cathepsin D activity was dialyzed against 25 mM Tris, pH 7.5, and stored at -40° C. (Con A pool) until use. […] The substrate, a porcine renin tetradecapeptide,was added to each reaction mixture to yield a final concentration of 44 μM in a total volume of 300 μl. The samples were incubated at 37° C. for 0, 10, 20, or 30 minutes, and then boiled for 5 minutes to stop the reaction. The samples were centrifuged in a microcentrifuge for 10 minutes at 14,000 rpm at 4° C. After centrifugation, 200 μL of each reaction was injected onto a C18 reverse phase liquid chromatography column (Vydac, Hesperia, Calif.) with a Perkin Elmer ISS 100 autosampler and eluted with a gradient of 0-50% CH3 CN in 0.1% CF3 CO2 H at 2 ml/min. Peptide product peaks were monitored at 220 nm with a Perkin Elmer LC 95 detector and integrated with Rainin Dynamax software in order to quantitate activity. CATHEPSIN D INHIBITION ACTIVITY (NON-CELLULAR FLUOROMETIC ASSAY) A fluorometric assay was adapted from the method disclosed by Murakami et al., (1981) Anal. Biochem. 110:232-239 for measuring renin activity. […] Compound stocks were prepared by dissolving an aspartyl protease inhibitor in DMSO for each concentration tested in the assay and then 5 μL of compound stock was added to each of the wells prepared above. […]

Several values for one entry are separate records, joined by “and”; a condition that tells them apart may be missing. Identical values can stand only once. Counter-ions that a name gives are not always drawn. Like-named read-outs stand apart in the source and are kept apart here.

T1 sequence (P07339 169-412 limits assumed): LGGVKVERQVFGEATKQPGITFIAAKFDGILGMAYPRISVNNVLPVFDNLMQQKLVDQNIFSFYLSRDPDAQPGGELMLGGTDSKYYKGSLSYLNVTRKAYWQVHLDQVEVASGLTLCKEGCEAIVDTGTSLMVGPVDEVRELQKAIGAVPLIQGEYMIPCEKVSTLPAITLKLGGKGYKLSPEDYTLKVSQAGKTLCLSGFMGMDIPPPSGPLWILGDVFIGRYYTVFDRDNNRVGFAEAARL
T1 sequence (P07339 65-162 limits assumed): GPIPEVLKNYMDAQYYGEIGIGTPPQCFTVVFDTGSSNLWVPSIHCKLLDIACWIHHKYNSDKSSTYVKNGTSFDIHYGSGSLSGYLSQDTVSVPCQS

Turning to “5-[[3-[4-(t-butyl)phenoxy]phenyl]methylene]-3-(N,N-dimethylamino)-2-thioxo-4-thiazolidinone [Example 13]”, in assay [1] (10.0 μg/ml), the “Percent Inhibition (β-amyloid peptide production)” value was determined as 25%.

As to “5-[[4-(4-acetyl-3-hydroxy-2-propylphenyl)methoxy]phenyl]methylene]-2-thioxo-4-thiazolidinone sodium salt [Example 14]”, in assay [1] (10.0 μg/ml), the “Percent Inhibition (β-amyloid peptide production)” value stood at 0%.

Turning to “5-[[4-[(4-acetyl-3-hydroxy-2-propylphenyl)methoxy]phenyl]methylene]-2-thioxo-4-thiazolidinone disodium salt [Example 10]”, the “Percent Inhibition (β-amyloid peptide production)” value in assay [1] (10.0 μg/ml) is 41%.

Regarding `CCCc1c(COc2ccc(C=C3SC(=S)NC3=O)cc2)ccc(C(C)=O)c1O` [Example 1, 5-[[4-[(4-acetyl-3-hydroxy-2-propylphenyl)methoxy]phenyl]methylene]-2-thioxo-4-thiazolidinone], the inhibition at 0.31 µg/mL (on cathepsin D; in assay [1]) was 4% each time. Moreover, the inhibition at 0.62 µg/mL (on cathepsin D; in assay [1]) was 0% throughout. In addition, the inhibition at 1.25 µg/mL (on cathepsin D (1.25 μg/ml); in assay [1] (1.25 μg/ml)) was 15% in each case. Also, the inhibition at 2.5 µg/mL (on cathepsin D (2.50 μg/ml); in assay [1] (2.50 μg/ml)) was 15% throughout. The inhibition at 5 µg/mL (on cathepsin D (5.00 μg/ml); in assay [1] (5.00 μg/ml)) was 26% in each case. Further, the “Percent Inhibition (cathepsin D)” value on cathepsin D (10.0 μg/ml) came out at 45%. Besides, the inhibition at 10 µg/mL (on cathepsin D (10.0 μg/ml); in assay [1] (10.0 μg/ml)) was 60% each time. Besides, in assay [1] (10.0 μg/ml), the “Percent Inhibition (β-amyloid peptide production)” value is on record as 45%.

`O=C1NC(=S)SC1=Cc1ccc(OCCCc2ccccc2)cc1` [Example 2, 5-[[4-(3-phenylpropoxy)phenyl]methylene]-2-thioxo-4-thiazolidinone]: the inhibition (as a rule, the percentage by which the read-out fell short of the control) at 10 µg/mL at cathepsin D (10.0 μg/ml) came to 38%.

On to `O=C1NC(=S)SC1=Cc1ccc(OCc2ccccc2)cc1` [Example 3, 5-[[4-(benzyloxy)phenyl]methylene]-2-thioxo-4-thiazolidinone], for which, at cathepsin D (10.0 μg/ml), the inhibition at 10 µg/mL was found to be 14%. Also, in assay [1], the inhibition at 0.31 µg/mL was determined as 14% and the inhibition at 0.62 µg/mL stood at 19%. Further, in assay [1] (1.25 μg/ml), the “Percent Inhibition (β-amyloid peptide production)” value was 21% and the inhibition at 1.25 µg/mL stood at 15%. In assay [1] (2.50 μg/ml), the “Percent Inhibition (β-amyloid peptide production)” value is 33% and the inhibition at 2.5 µg/mL was 24%. Also, in assay [1] (5.00 μg/ml), the “Percent Inhibition (β-amyloid peptide production)” value came to 51% and the inhibition at 5 µg/mL was 41%. Besides, in assay [1] (10.0 μg/ml), the “Percent Inhibition (β-amyloid peptide production)” value worked out at 74% and the inhibition at 10 µg/mL was determined as 67%.

Take `CCCc1c(OCc2ccc(/C=C3\SC(=S)NC3=O)cc2)ccc(C(C)=O)c1O` [Example 4, (Z)-5-[[4-[(4-acetyl-3-hydroxy-2-propylphenoxymethyl)]phenyl]methylene]-2-thioxo-4-thiazolidinone]: the inhibition at 10 µg/mL in assay [1] (10.0 μg/ml) is 38%.

As for `CCCc1c(COc2ccc(C=C3SC(=S)N(C)C3=O)cc2)ccc(C(C)=O)c1O` [Example 6, 5-[[4-[(4-acetyl-3-hydroxy-2-propylphenyl)methoxy]phenyl]methylene]-3-methyl-2-thioxo-4-thiazolidinone], the inhibition at 10 µg/mL on cathepsin D (10.0 μg/ml) stood at 46%.

With `CC(C)(C)c1ccc(Oc2cccc(C=C3SC(=S)N(N)C3=O)c2)cc1` [Example 9, 5-[[3-[4-(t-butyl)phenoxy]phenyl]methylene]-3-amino-2-thioxo-4-thiazolidinone], at cathepsin D (10.0 μg/ml), the inhibition at 10 µg/mL came out at 14%.

Regarding `CCCc1c(COc2ccc(C=C3SC(=S)NC3=O)cc2)ccc(C(C)=O)c1O` [Example 11, 5-[[4-[(4-acetyl-3-hydroxy-2-propylphenyl)methoxy]phenyl]methylene]-2-thioxo-4-thiazolidinone dilithium salt], in assay [1], the inhibition at 10 µg/mL amounted to 20%.

For the compound `CCCCc1ccc(Oc2ccc(C=C3SC(=S)NC3=O)cc2)cc1` [Example 15, 5-[[4-(4-butylphenoxy)phenyl]methylene]-2-thioxo-4-thiazolidinone], the inhibition at 10 µg/mL in assay [1] (10.0 μg/ml) amounted to 14%.

Regarding `CC(=O)c1ccc(COc2ccc(C=C3SC(=S)NC3=O)cc2)cc1` [Example 16, 5-[[4-[(4-acetylphenyl)methoxy]phenyl]-methylene]-2-thioxo-4-thiazolidinone], the inhibition at 10 µg/mL at cathepsin D (10.0 μg/ml) stood at 20%.

For the compound `CC(C)(C)c1ccc(Oc2cccc(C=C3SC(=S)NC3=O)c2)cc1` [Example 19, 5-[[3-[4-(1,1,dimethyleth-1-yl)phenoxy]phenyl]methylene]-2-thioxo-4-thiazolidinone], at cathepsin D, the inhibition at 0.31 µg/mL was 14% and the inhibition at 0.62 µg/mL was found to be 19%. Moreover, on cathepsin D (1.25 μg/ml), the “Percent Inhibition (cathepsin D)” value worked out at 21% and the inhibition at 1.25 µg/mL was 15%. On cathepsin D (2.50 μg/ml), the “Percent Inhibition (cathepsin D)” value amounted to 33% and the inhibition at 2.5 µg/mL worked out at 24%. Besides, at cathepsin D (5.00 μg/ml), the “Percent Inhibition (cathepsin D)” value is on record as 51% and the inhibition at 5 µg/mL is 41%. Besides, at cathepsin D (10.0 μg/ml), the “Percent Inhibition (cathepsin D)” value is 69% and 74%; the inhibition at 10 µg/mL was 67%.

For the compound `CCCc1c(COc2ccc(C=C3SC(=S)NC3=O)cc2)ccc(C(C)=O)c1OC(C)=O` [Example 21, 5-[[4-[(4-acetyl-3-acetoxy-2-propylphenyl)methoxy]phenyl]methylene]-2-thioxo-4-thiazolidinone], the inhibition at 10 µg/mL on cathepsin D (10.0 μg/ml) was determined as 25%.
